Earlier results in US10053407B2, “Crystalline cannabidivarin” (S&B Pharma, Inc., priority 2016, dated 2018).

Tested on: epilepsy
Conditions: animal studies; 50 and 100 mg/kg, delivered intra-peritoneally; cannabidivarin prepared by non-synthetic methods

## C=C(C)[C@@H]1CCC(C)=C[C@H]1c1c(O)cc(CCC)cc1O [cannabidivarin]
  mortality: effective in reducing mortality
